These results are taken from US20260137697A1, “THIAZOLO[5,4-D]PYRIMIDINE COMPOUNDS, COMPOSITIONS COMPRISING THEM AND USES THEREOF” (University de Montreal, priority 2022, published 2026).

By IC50 is commonly meant the concentration that inhibits the measured activity by half. Higher therefore signals weaker potency.

Each structure is given as a SMILES string. Like-named read-outs stand apart in the source and are kept apart here.

Holding throughout (assay type): cell-based, human
The subject of one experiment is pERK, SW620 cells. The experiment is described as follows: Phospho-ERK inhibition, AlphaLISA p-ERK 1/2, SW620. As to conditions: Table D-2; for IC50: SW620 (KRAS-G12V); for pERK value in parentheses, % inhibition (Ymin): SW620, lowest point of IC50 curve. The procedure: (§1) All cancer cell lines (A375, A101D, A2058, RKO, HT29 SK-MEL 30, IPC298, HepG2, HCT-116, Lovo, SW620, SW480, NCI-H358, NCI-H2122, Calu-6, NCIH2087, NCIH1755, NCIH1666 and Mewo) were obtained from ATCC and cultured in RPM1-1640 medium (Gibco) supplemented with 5% heat inactivated fetal bovine serum (FBS, Wisent) at 37° C. under 5% CO2. Cells were maintained in T175 flasks (Greiner). They were passaged by removing the culture medium, washing once in 10 mL of room temperature Phosphate Buffered Saline (PBS; Wisent) and incubating at 37° C. with 2 mL of 0.05% Trypsin (Thermo-Fisher). Trypsin was then inactivated by adding complete growth medium and the cells were then replated in a T175 culture dish at the appropriate dilution. All cell lines were routinely tested for mycoplasma contamination. Tissue type and mutational status of each cell line can be found in Table B.
(§2) (c) Measurement of Phospho-ERK Inhibition in Cultivated Human Cancer Cell Lines by the AlphaLISA® SureFire® Ultra™ p-ERK 1/2 (Thr2O2/Tyr204)
(§3) AlphaLISA® SureFire® Ultra™ p-ERK 1/2 (Thr202/Tyr204) analysis was conducted on cells plated in 100 μL of complete RPMI-1640 growth medium in 96-well flat-bottomed transparent dishes (Costar) at a density indicated in Table C. Cells were maintained overnight at 37° C. under 5% CO2 before treatment with compounds' dilution series for one hour. The cell density in cells/cm^2 corresponds to cell number divided by the area of one well of a 96-well plate (0.143 cm^2).
(§4) In a dilution series 100 μL/well of test substance dilution prepared in complete RPMI-1640 growth media was added to the cells. The dilution series is selected so that ten concentrations cover a range from 10 μM to 0.33 nM. If necessary, the initial concentration of 10 μM is increased to 100 μM or lowered to 1 μM (as in the case of A375 and H1666 cells, which are generally more sensitive to the compounds) and further dilution is carried out accordingly. The final concentration of DMSO in the assay is set at 0.5%.
(§5) After treatment, media was removed, and cells were lysed in 50 μL of 1× AlphaScreen Ultra Lysis Buffer (Perkin Elmer). The AlphaLISA® SureFire® Ultra™ p-ERK 1/2 (Thr202/Tyr204) (PerkinElmer) reactions were performed with 5 μL of cell lysate according to the manufacturer's specifications in 384-well proxyplates (Perkin Elmer) followed by overnight incubation of the reactions at room temperature in a humidified chamber. After completion of the reactions, the signals were recorded on an EnVision plate reader (Perkin Elmer) using built in AlphaLISA® settings.
(§6) The effect of each compound dilution on the pERK signal was expressed in % inhibition and calculated as follows. An internal 100% inhibition control (1 μM trametinib, cat. No. HY-10999; MedChem Express; CAS No. 871700-17-3) was included in each plate and used as a measure of pERK background. First, the value obtained for trametinib was subtracted from each data point. The average of DMSO (vehicle) controls (set as 0% inhibition) was established and used to calculate % inhibition:
(§7) The ability of each compound to inhibit pERK signal was expressed as an IC50 value obtained by plotting the inhibition values for each data point of a dilution series and fitting the obtained curves using a log(agonist) versus response—variable slope (four parameters) function using GraphPadPrism (V7.0) or Dotmatics Screening Ultra platform.
(§8) When present, paradoxical pERK induction is inferred from the negative % inhibition values observed in the pERK IC50 curves of a compound.
(In general: Bead proximity is the source of the signal in Alpha formats.)

The next experiment concerns pERK, NCIH2087 cells. The experiment is described as follows: Phospho-ERK inhibition, AlphaLISA p-ERK 1/2, NCIH2087. Particulars: Table D-2; for IC50: NCIH2087 (BRAF L597V; KRAS Q61K); for pERK value in parentheses, % inhibition (Ymin): NCIH2087, lowest point of IC50 curve. As to the method: as §1, §2, §3, §4, §5, §6, §7, §8
The next experiment relates to RKO cells. The experiment is described as follows: Proliferation inhibition, CellTiter-Glo, RKO. Particulars: Table D-1, RKO (BRAF V600E), 3 days, read-out: Prolif. (proliferation EC50). As to the method: as §1
(§9) CellTiter-Glo® viability analysis was conducted on cells plated in 100 μL of complete RPMI-1640 growth medium in 96-well flat-bottomed white opaque plates (Greiner or Croning) at a density indicated in Table E (for each CCL, number of cells plated per well of a 96-well plate to perform the CellTiter-Glo® cell viability assay). The cell density in cells/cm^2 would correspond to cell number divided by the area of one well of a 96-well plate (0.32 cm^2). […]
(§10) After 3 days of incubation, the growth media were removed by aspiration and 60 μL of diluted CellTiter-Glo® reagent (10 μL CellTiter-Glo® reagent+50 μL of PBS) was added to each well. […] Luminescence signals were then acquired on a Synergy Neo2 plate reader (Biotek).
(§11) The effect of each compound dilution on the proliferation of cancer cell lines was expressed in % inhibition and calculated as follows. […]
(§12) The ability of each compound to inhibit proliferation was expressed as a EC50 value obtained by plotting the effect values for each data point of a dilution series and fitting the obtained curves using a log(agonist) versus response—variable slope (four parameters) function using GraphPadPrism (V7.0) or Dotmatics Screening Ultra platform.
A general note: Cellular ATP, detected with luciferase, serves as a proxy for viable cell number.

In the next experiment the test system is NCI-H358 cells. The experiment is described as follows: Proliferation inhibition, CellTiter-Glo, NCI-H358. Particulars: Table D-2, NCI-H358 (KRAS-G12C), 3 days, read-out: Prolif. (proliferation EC50). The procedure:
as §1, §9, §10, §11, §12

The next experiment has as its system SW620 cells. Description: Proliferation inhibition, CellTiter-Glo, SW620. As to conditions: Table D-2, SW620 (KRAS-G12V), 3 days, read-out: Prolif. (proliferation EC50). As to the method:
as §1, §9, §10, §11, §12

As for `Cc1ccc2c(Nc3cccc(Cl)c3F)nccc2c1NC(=O)c1csc2c(N)ncnc12` [Belvarafenib, reference compound], the IC50 is 30 to 300 nM in the experiment with pERK, SW620 cells (Homo sapiens, SW-620) and less than 30 nM with pERK, NCIH2087 cells (Homo sapiens, NCI-H2087). Further, the “pERK value in parentheses, % inhibition (Ymin)” value (shortened to “pERK value … % inhibition (Ymin)”) in the experiment with pERK, SW620 cells was “(−151) %”; in the experiment on pERK, NCIH2087 cells, 6%. Moreover, the EC50 in the experiment on RKO cells (Homo sapiens, 72 h) was less than 300 nM; in the experiment on NCI-H358 cells (Homo sapiens, 72 h) it was 300 to 3000 nM; with SW620 cells (Homo sapiens, SW-620, 72 h), 300 to 3000 nM.

As to `Cc1c(F)cccc1S(=O)(=O)Nc1ccc(F)c(Nc2ncnc3sc(-n4cc(C(=O)N5C6CCC5CN(C)C6)c5ccccc54)nc23)c1F` [Example 44], the IC50 is 30 to 300 nM in the experiment on pERK, SW620 cells and less than 30 nM in the experiment on pERK, NCIH2087 cells. The “pERK value … % inhibition (Ymin)” value in the experiment on pERK, SW620 cells is given as “(3) %”; in the experiment on pERK, NCIH2087 cells, 4%. The EC50 with RKO cells, in the experiment with NCI-H358 cells and in the experiment with SW620 cells was less than 300 nM in each case.

Consider `N#CC1(c2cccc3c2ncn3-c2nc3c(Nc4c(F)ccc(NS(=O)(=O)c5cccc(Cl)c5Cl)c4F)ncnc3s2)CC1` [Example 122], for which the IC50 with pERK, SW620 cells was 30 to 300 nM; with pERK, NCIH2087 cells it was less than 30 nM. Also, the “pERK value … % inhibition (Ymin)” value in the experiment on pERK, SW620 cells is listed as “(−6) %”; in the experiment with pERK, NCIH2087 cells it was 4%. Moreover, the EC50 in the experiment with RKO cells, in the experiment with NCI-H358 cells and in the experiment on SW620 cells was less than 300 nM each time.
